Data taken from publication PMC3757248, “Antiestrogen-binding site ligands induce autophagy in myeloma cells that proceeds through alteration of cholesterol metabolism” (Oncotarget, 2013).

What was measured:
AEBS [1] = target: T1, AEBS (Homo sapiens, UniProt Q15125+Q9UBM7); test: Binding to the AEBS in RPMI 8226
RPMI 8226 cells [2] = test: Electron microscopy for MLBs, AVs and UVs; assay type: cell-based, human; details: 48 h, 10 μM drug (PBPE 40 μM)
LP-1 cells [3] = test: Electron microscopy for MLBs, AVs and UVs; assay type: cell-based, human; details: 48 h, 10 μM drug (PBPE 40 μM)
HMCLs = test: Free sterol accumulation in HMCLs; assay type: cell-based, human
Protocol: (§1) The organic layer was reduced to dryness under a flux of argon and the residue was resuspended in ethanol. Sterols were analyzed by liquid chromatography and gas-liquid chromatography as described before. Neutral lipids and sphingomyelin analyses were done according to previously published procedures.

Karpas 620 = system: Karpas 620; design: method as in earlier work; details: cited from earlier work
LP-1 = system: LP-1; design: method as in earlier work; details: cited from earlier work
NCI-H929 = system: NCI-H929; design: method as in earlier work; details: cited from earlier work
OPM-2 = system: OPM-2; design: method as in earlier work; details: cited from earlier work
RPMI 8226 = system: RPMI 8226; design: method as in earlier work; details: cited from earlier work
U266 = system: U266; design: method as in earlier work; details: cited from earlier work
MM tumors = system: MM tumors; design: method as in PMID 20033476, PMID 16753295; details: xenografted mice bearing MM tumors; cited from earlier work
AEBS [4] = target: T1, AEBS; test: Binding to the AEBS in LP1; design: endogenous in cells; host or cells: LP-1 human multiple myeloma cell lines
ChEH [5] = target: T2, ChEH (Homo sapiens, UniProt Q15125+Q9UBM7); test: ChEH activity measured on intact cells; assay type: cell-based; design: endogenous in cells; host or cells: LP-1 human multiple myeloma cell lines
T2 sequence (Q15125 whole entry): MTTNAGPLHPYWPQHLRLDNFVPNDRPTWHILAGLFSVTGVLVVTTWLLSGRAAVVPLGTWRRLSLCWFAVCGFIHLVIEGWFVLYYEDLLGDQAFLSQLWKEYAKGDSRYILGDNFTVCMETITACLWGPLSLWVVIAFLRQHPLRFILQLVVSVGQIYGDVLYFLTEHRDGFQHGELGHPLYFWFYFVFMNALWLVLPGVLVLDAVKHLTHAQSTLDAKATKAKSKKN
T2 sequence (Q9UBM7 whole entry): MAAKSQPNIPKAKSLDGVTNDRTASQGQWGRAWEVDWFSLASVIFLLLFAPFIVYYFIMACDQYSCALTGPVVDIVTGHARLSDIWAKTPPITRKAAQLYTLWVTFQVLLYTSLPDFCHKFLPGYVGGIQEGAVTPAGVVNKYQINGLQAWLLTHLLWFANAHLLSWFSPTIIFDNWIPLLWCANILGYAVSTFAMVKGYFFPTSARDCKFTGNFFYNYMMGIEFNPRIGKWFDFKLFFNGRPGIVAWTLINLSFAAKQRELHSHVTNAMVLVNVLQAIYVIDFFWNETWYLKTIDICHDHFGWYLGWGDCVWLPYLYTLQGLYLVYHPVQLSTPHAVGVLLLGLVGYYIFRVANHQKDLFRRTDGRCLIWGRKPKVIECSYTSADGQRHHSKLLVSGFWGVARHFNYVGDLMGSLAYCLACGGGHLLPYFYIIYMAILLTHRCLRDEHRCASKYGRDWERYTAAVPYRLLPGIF
Description: (§2) Cells were then pelleted and extracted with chloroform/methanol (2/1). The organic layer was reduced to dryness under a flux of argon and the residue was resuspended in EtOH. Samples were applied to thin layer chromatography (TLC) plates and developed using ethyl acetate as previously described. The radioactive metabolites were visualized by autoradiography using Kodak Biomax MS films.

ChEH [6] = target: T2, ChEH; test: ChEH activity measured on intact cells; assay type: cell-based; design: endogenous in cells; host or cells: RPMI 8226 human multiple myeloma cell lines
Description: as §2

AEBS [7] = target: T1, AEBS; test: Binding to the AEBS in HMCLs; design: endogenous in cells; host or cells: RPMI 8226 and LP-1 human multiple myeloma cell lines
ChEH [8] = target: T2, ChEH; test: ChEH activity in HMCLs (TLC); assay type: cell-based; design: endogenous in cells; host or cells: RPMI 8226 and LP-1 human multiple myeloma cell lines; details: for ChEH activity, conversion of 5,6-EC into CT by TLC: OHT, Tam, RU 58668 10 μM, PBPE 40 μM
Description: as §2

LP-1 cells [9] = test: Sterols accumulated in cells, HPLC and GC/MS; assay type: cell-based, human; details: LP1, 48 h incubation
Protocol: as §1

RPMI 8226 cells [10] = test: Sterols accumulated in cells, HPLC and GC/MS; assay type: cell-based, human; details: RPMI 8226, 48 h incubation
Protocol: as §1

LP-1 cells [11] = test: Presence of 5,6-EC in cells by GC/MS; assay type: cell-based, human; details: 48 h, 10 μM drug (PBPE 40 μM)
Protocol: as §1

RPMI 8226 cells [12] = test: Presence of 5,6-EC in cells by GC/MS; assay type: cell-based, human; details: 48 h, 10 μM drug (PBPE 40 μM)
Protocol: as §1

RPMI 8226 and LP-1 cells [13] = test: Degradation of long-lived proteins; assay type: cell-based, human; details: both cell lines, 10 μM OHT, 40 μM PBPE
Protocol: The degradation of long-lived proteins was measured as described previously. Briefly, HMCLs were incubated for 24 h at 37°C with 0.2 μCi/ml of L-[[14]C]valine in complete medium. Cells were then washed resuspended in medium with no nutrients but supplemented with 10 mM valine. After the first h of incubation, the chase medium was replaced by complete medium and the incubation continued for 5 h. […] Radiolabeled proteins present in the chase medium as well as in cells were precipitated with 10% trichloroacetic acid (v/v) at 4°C. Radioactivity was measured by scintillation counting. The rate of protein degradation was calculated from the ratio of radioactivity in the medium to that of precipitated cell fraction.

RPMI 8226 and LP-1 cells [14] = test: Cell viability, MTT assay; assay type: cell-based, human; details: 1 μM LY 294002, 10 nM everolimus, 10 μM RU 39411, 40 μM PBPE
Protocol: RPMI 8226 were obtained from R Bataille (CLCC, Nantes, France) and LP-1 cells from D Bouscary (Institut Cochin, Paris, France). At their arrival, the identity of cells was checked by karyotyping and surface markers expression; cells were then amplified and frozen. HMCLs were maintained in RPMI 1640 medium (Lonza, Basel, Switzerland) supplemented with 2 mM L-glutamine (Lonza) and 10% FCS (fetal calf serum) (PAA Laboratories, Velizy-Villacoublay, France). In experiments with AEs, cells were cultured in phenol red-free medium plus FCS. AEs were dissolved in ethanol (EtOH) to obtain 10 mM stock solution and then diluted into medium immediately before use. For controls, vehicle was added at the same final concentration. Cell viability was determined using CellTiter 96® AQueous One Solution (MTT [([3]-([4],[5])-dimethylthiazol-[2]-yl)-[2],[5]-diphenyltetrazolium bromide] assay, Promega, Charbonnières, France) according to the supplier's instructions.

RPMI 8226 and LP-1 cells [15] = test: Intracellular free sterol, TG and SM contents; assay type: cell-based, human; details: 5 µM OHT, 20 µM PBPE or 5 µM RU 58668 for three days
Protocol: as §1

[16] = RPMI 8226, presence of 500 μM Vit E

T1 sequence (Q15125 whole entry): as the sequence (Q15125 whole entry) above
T1 sequence (Q9UBM7 whole entry): as the sequence (Q9UBM7 whole entry) above

Compound	Ki (AEBS [1]) [nM]	AV (RPMI 8226 cells [2]; RPMI 8226, absence of Vit E)	MLB (RPMI 8226 cells [2]; RPMI 8226, absence of Vit E)	UV (RPMI 8226 cells [2]; RPMI 8226, absence of Vit E)	AV (RPMI 8226 cells [2]; [16])	MLB (RPMI 8226 cells [2]; [16])	UV (RPMI 8226 cells [2]; [16])	AV (LP-1 cells [3]; LP-1, absence of Vit E)	MLB (LP-1 cells [3]; LP-1, absence of Vit E)	UV (LP-1 cells [3]; LP-1, absence of Vit E)	AV (LP-1 cells [3]; LP-1, presence of 500 μM Vit E)	MLB (LP-1 cells [3]; LP-1, presence of 500 μM Vit E)	UV (LP-1 cells [3]; LP-1, presence of 500 μM Vit E)	free sterol accumulated (HMCLs)	Ki (AEBS [4]) [nM]	affinity for the AEBS (AEBS [7])	ChEH activity, conversion of 5,6-EC into CT by TLC (ChEH [8])	other results
C[C@]12C[C@H](c3ccc(OCCCCCS(=O)(=O)CCCC(F)(F)C(F)(F)F)cc3)[C@@H]3c4ccc(O)cc4CC[C@H]3[C@@H]1CC[C@@H]2O [RU 58668, 17β-11-[4-[5-[([4],[4],[5],[5],[5]-pentafluoropentyl)-sulfonyl]-pentyloxy]-phenyl]estra-1,3,5(10)-triene,3,17-diol]	> 10000	+ + (The sign + means that 80 % cells were positive and contained at least 5 vesicles)	− − (otherwise they were considered as negative (-))	− − (otherwise they were considered as negative (-))	+ + (The sign + means that 80 % cells were positive and contained at least 5 vesicles)	− − (otherwise they were considered as negative (-))	− − (otherwise they were considered as negative (-))	+ + (The sign + means that 80 % cells were positive and contained at least 5 vesicles)	− − (otherwise they were considered as negative (-))	− − (otherwise they were considered as negative (-))	+ + (The sign + means that 80 % cells were positive and contained at least 5 vesicles)	− − (otherwise they were considered as negative (-))	− − (otherwise they were considered as negative (-))	did not induce free sterol accumulation	> 10000	no measurable affinity	CT accumulated	SERM and SERDs effects on MM cell lines (Karpas 620): No response; SERM and SERDs effects on MM cell lines (LP-1): G1-arrest; SERM and SERDs effects on MM cell lines (NCI-H929): Apoptosis; SERM and SERDs effects on MM cell lines (OPM-2): G1-arrest; SERM and SERDs effects on MM cell lines (RPMI 8226): Apoptosis; SERM and SERDs effects on MM cell lines (U266): No response; tumor growth (MM tumors): block tumor growth; IC50 (ChEH [5]; LP-1 intact cells, [14C]-5,6-EC 0.6 μM, drugs 1 nM to 10 μM over 24 h, read-out: ChEH IC50): > 10000 nM; IC50 (ChEH [6]; RPMI 8226 intact cells, [14C]-5,6-EC 0.6 μM, drugs 1 nM to 10 μM over 24 h, read-out: ChEH IC50): > 10000 nM; IC50 (ChEH [8]; read-out: concentration up to which ChEH was not inhibited): > 10000 nM
Cl.c1ccc(Cc2ccc(OCCN3CCCC3)cc2)cc1 [PBPE, 1-(2-(4-benzylphenoxy)-ethyl)-pyrrolidin-HCl]	4.2 ± 1.8	+ + (The sign + means that 80 % cells were positive and contained at least 5 vesicles)	+ + (The sign + means that 80 % cells were positive and contained at least 5 vesicles)	+ (The sign + means that 80 % cells were positive and contained at least 5 vesicles)	+ + (The sign + means that 80 % cells were positive and contained at least 5 vesicles)	+ + (The sign + means that 80 % cells were positive and contained at least 5 vesicles)	− (otherwise they were considered as negative (-))	+ + (The sign + means that 80 % cells were positive and contained at least 5 vesicles)	+ + (The sign + means that 80 % cells were positive and contained at least 5 vesicles)	+ (The sign + means that 80 % cells were positive and contained at least 5 vesicles)	+ + (The sign + means that 80 % cells were positive and contained at least 5 vesicles)	+ + (The sign + means that 80 % cells were positive and contained at least 5 vesicles)	− (otherwise they were considered as negative (-))	accumulation zymostenol	3.2 ± 2.2	high affinity	ChEH activity was inhibited	Desmosterol (LP-1 cells [9]): 1.2 percent by the weight of total sterol; Zymostenol (LP-1 cells [9]): 31.1 percent by the weight of total sterol; Desmosterol (RPMI 8226 cells [10]): 1.4 percent by the weight of total sterol; Zymostenol (RPMI 8226 cells [10]): 28.7 percent by the weight of total sterol; 5,6-EC (LP-1 cells [11]; LP-1, absence of Vit E): +; 5,6-EC (LP-1 cells [11]; LP-1, presence of 500 μM Vit E): −; 5,6-EC (RPMI 8226 cells [12]; RPMI 8226, absence of Vit E): +; 5,6-EC (RPMI 8226 cells [12]; [16]): −; rate of long-lived protein degradation (RPMI 8226 and LP-1 cells [13]): stimulated; cell death (viable cells, MTT assay) (RPMI 8226 and LP-1 cells [14]): cell death that was strictly caspase-independent; intracellular free sterol, triacylglycerol (TG) and sphingomyelin (SM) contents (RPMI 8226 and LP-1 cells [15]): increases; IC50 (ChEH [5]): 884 ± 32 nM; IC50 (ChEH [6]): 927 ± 24 nM
